Results taken from patent publication US10024845B2, “Methods for determining modulators of insect transient receptor potential V (TRPV) channel” (BASF SE, priority 2013, dated 2018).
“Also recorded” adds a separate entry of the source. Where two headings read alike, the source gives them in different places.

What was measured:
[1] = system: insect TRPV channel (Drosophila Nanchung and Inactive co-expressed); assay type: cell-based; settings: for Response of cells (fluorescence units), Insect TRPV cells: single high dose 20 μM; for Inhibition of stimulation of the insect TRPV channel: cell-impermeable ion channel blocker; for Ca2+ mobilization in cells co-expressing Nan and Iav (insect TRPV channel), in words: FLUO4 probe; for Dependence of the cell response on Ca2+ in the extracellular media: insect TRPV-expressing cells
mouse TRPV4 (mTRPV4) = mouse TRPV4 (mTRPV4) (Mus musculus, UniProt Q9EPK8); experiment: Ca2+ mobilization (FLUO4, FLIPR) in CHO-K1 cells expressing mTRPV4; assay type: cell-based; settings: for Ca2+ mobilization in cells expressing mTRPV4, in words: FLUO4 probe
parental CHO-K1 cells = assay type: cell-based, hamster
[2] = CHO-K1 cells expressing insect TRPV
[3] = single high dose 20 μM, CHO-K1 cells expressing mTRPV4
[4] = single high dose 20 μM, parental CHO-K1 cells
[5] = listed as metabolite B of Pyrifluquinazon

mouse TRPV4 (mTRPV4), sequence (Q9EPK8 whole entry): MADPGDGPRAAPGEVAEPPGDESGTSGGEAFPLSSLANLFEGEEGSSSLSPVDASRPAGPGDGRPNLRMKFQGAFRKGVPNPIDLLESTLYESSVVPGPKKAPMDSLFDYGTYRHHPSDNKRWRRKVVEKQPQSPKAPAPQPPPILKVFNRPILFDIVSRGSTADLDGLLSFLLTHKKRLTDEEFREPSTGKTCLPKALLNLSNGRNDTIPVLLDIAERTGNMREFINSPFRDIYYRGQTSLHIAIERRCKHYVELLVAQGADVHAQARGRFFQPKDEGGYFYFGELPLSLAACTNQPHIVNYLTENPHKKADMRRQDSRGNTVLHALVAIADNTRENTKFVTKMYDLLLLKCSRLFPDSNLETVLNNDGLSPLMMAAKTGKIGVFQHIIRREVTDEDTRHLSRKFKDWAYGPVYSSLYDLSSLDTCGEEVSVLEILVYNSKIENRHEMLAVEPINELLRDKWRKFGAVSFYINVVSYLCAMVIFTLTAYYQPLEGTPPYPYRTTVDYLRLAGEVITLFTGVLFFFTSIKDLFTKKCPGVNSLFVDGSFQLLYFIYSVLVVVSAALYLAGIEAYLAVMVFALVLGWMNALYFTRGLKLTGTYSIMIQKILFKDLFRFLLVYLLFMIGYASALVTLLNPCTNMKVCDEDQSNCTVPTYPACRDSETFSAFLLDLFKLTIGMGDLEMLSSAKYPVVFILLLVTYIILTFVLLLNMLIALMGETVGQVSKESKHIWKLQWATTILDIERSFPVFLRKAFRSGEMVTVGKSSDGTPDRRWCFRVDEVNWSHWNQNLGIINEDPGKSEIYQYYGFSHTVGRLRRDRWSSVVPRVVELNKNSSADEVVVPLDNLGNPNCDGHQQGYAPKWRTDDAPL

| Molecule | Response of cells (fluorescence units), Insect TRPV cells [1, 2] | Response of cells (fluorescence units), mTRPV4 cells (mouse TRPV4 (mTRPV4); [3]) | Response of cells (fluorescence units), Parental CHO cells (parental CHO-K1 cells; [4]) | other results |
| --- | --- | --- | --- | --- |
| CC(C)C[C@H](NC(=O)c1cc2ccccc2s1)C(=O)N1CCN(C(=O)[C@H](CO)NS(=O)(=O)c2ccc(Cl)cc2Cl)CC1 [GSK1016790A, N-((1 S)-1-{[4-((2 S)-2-{[(2,4-dichlorophenyl)sulfonyl]amino}-3-hydroxypropanoyl)-1-piperazinyl]carbonyl}-3-methylbutyl)-1-benzothiophene-2-carboxamide] | 53 fluorescence units | 2017 fluorescence units | 71 fluorescence units | Ca2+ mobilization in cells expressing mTRPV4, in words (mouse TRPV4 (mTRPV4)): induced strong Ca^2+ mobilization response; also recorded: strong activation |
| ClC1=C(Cl)[C@]2(Cl)[C@@H]3[C@@H]4C[C@@H]([C@H]5O[C@@H]45)[C@@H]3[C@@]1(Cl)C2(Cl)Cl [Dieldrin] | 78 fluorescence units | 52 fluorescence units | 73 fluorescence units |  |
| N.N.N.N.N.N.N.N.N.N.N.N.N.N.[Cl-].[Cl-].[Cl-].[Cl-].[Cl-].[Cl-].[O-2].[O-2].[Ru+3].[Ru+3].[Ru+4] [Ruthenium red] |  |  |  | Inhibition of stimulation of the insect TRPV channel [1]: inhibited; Inhibition of stimulation of the insect TRPV channel ([1]; listed as ruthenium red): inhibition of the response |
| CNC(=O)c1cc(Cl)cc(C)c1NC(=O)c1cc(Br)nn1-c1ncccc1Cl [Rynaxapyr] | 43 fluorescence units | 74 fluorescence units | 93 fluorescence units |  |
| N#Cc1nn(-c2c(Cl)cc(C(F)(F)F)cc2Cl)c(N)c1[S+]([O-])C(F)(F)F (centres unmarked) [Fipronil] | 133 fluorescence units | 60 fluorescence units | 240 fluorescence units |  |
| Cc1ccc(/N=C/N(C)/C=N/c2ccc(C)cc2C)c(C)c1 [Amitraz] | 58 fluorescence units | 25 fluorescence units | 50 fluorescence units |  |
| CC(=O)N1C(=O)N(NCc2cccnc2)Cc2cc(C(F)(C(F)(F)F)C(F)(F)F)ccc21 [pyrifluquinazon] |  |  |  | Ca2+ mobilization in cells co-expressing Nan and Iav (insect TRPV channel), in words [1]: triggered Ca^2+ mobilization; Dependence of the cell response on Ca2+ in the extracellular media [1]: absolutely dependent on the presence of Ca^2+ in the extracellular media |
| CC(=O)OCC[N+](C)(C)C [Acetylcholine] | 250 fluorescence units |  | 797 fluorescence units |  |
| O=C1Nc2ccc(C(F)(C(F)(F)F)C(F)(F)F)cc2CN1NCc1cccnc1 [Pyrifluquinazon metabolite B] | 538 fluorescence units | 346 fluorescence units | 40 fluorescence units | Potency relative to the parental compound pyrifluquinazon [1]: about 100 fold; Ca2+ mobilization in cells co-expressing Nan and Iav (insect TRPV channel), in words [1]: activation of insect TRPV channel; Ca2+ mobilization in cells co-expressing Nan and Iav (insect TRPV channel), in words [1, 5]: triggered Ca^2+ mobilization; Dependence of the cell response on Ca2+ in the extracellular media [1]: requires presence of Ca^2+ in the extracellular media; Potency against mouse TRPV4 relative to Drosophila TRPV channel (mouse TRPV4 (mTRPV4)): ~100 fold; Ca2+ mobilization in cells expressing mTRPV4, in words (mouse TRPV4 (mTRPV4)): weak activation; Ca2+ mobilization in cells expressing mTRPV4, in words (mouse TRPV4 (mTRPV4); [5]): did trigger Ca^2+ mobilization |
| N#C/N=C1\SCCN1Cc1ccc(Cl)nc1 [Thiacloprid] | 36 fluorescence units | 16 fluorescence units | 29 fluorescence units |  |
| NCCCC(=O)O [GABA] | 68 fluorescence units | 43 fluorescence units | 100 fluorescence units |  |
| CN1CCN2c3ccccc3Cc3ccccc3C2C1 (centres unmarked) [Miansenn] |  | 30 fluorescence units | 110 fluorescence units | Response of cells (fluorescence units), Insect TRPV cells ([1]; […]): 86 fluorescence units |
| Clc1cccc(Cl)c1N=C1NCCN1 [Clonidine] | 135 fluorescence units |  |  | Response of cells (fluorescence units), mTRPV4 cells (mouse TRPV4 (mTRPV4)): 62 fluorescence units; Response of cells (fluorescence units), Parental CHO cells (parental CHO-K1 cells): 136 fluorescence units |
| CN1CCCC1c1cccnc1 (centres unmarked) [Nicotine] | 81 fluorescence units |  |  | Response of cells (fluorescence units), mTRPV4 cells (mouse TRPV4 (mTRPV4)): 8 fluorescence units; Response of cells (fluorescence units), Parental CHO cells (parental CHO-K1 cells): 65 fluorescence units |
| c1ccc2c(CC3=NCCN3)cccc2c1 [Naphazoline] | 31 fluorescence units | 11 fluorescence units | 50 fluorescence units |  |
| Abamectin | 49 fluorescence units | 30 fluorescence units | 52 fluorescence units |  |
| CN/C(=N/CC1CCOC1)N[N+](=O)[O-] (centres unmarked) [Dinotefuran] | 48 fluorescence units | 23 fluorescence units |  | Response of cells (fluorescence units), Parental CHO cells (parental CHO-K1 cells): 23 fluorescence units |
| CC[S+]([O-])c1c(C#N)nn(-c2c(Cl)cc(C(F)(F)F)cc2Cl)c1N (centres unmarked) [Ethiprole] | 154 fluorescence units | 113 fluorescence units | 357 fluorescence units |  |
| NCC(O)c1ccc(O)cc1 (centres unmarked) [Octopamine] | 66 fluorescence units | 20 fluorescence units | 45 fluorescence units |  |
| Ryanodine |  | 19 fluorescence units | 75 fluorescence units | Response of cells (fluorescence units), Insect TRPV cells ([1]; […]): 53 fluorescence units |
| O=[N+]([O-])NC1=NCCN1Cc1ccc(Cl)nc1 [Imidacloprid] | 42 fluorescence units | 16 fluorescence units | 69 fluorescence units |  |
| Cl[C@H]1[C@H](Cl)[C@@H](Cl)[C@@H](Cl)[C@H](Cl)[C@H]1Cl [Lindane] | 35 fluorescence units | 12 fluorescence units | 19 fluorescence units |  |
| CC1=NNC(=O)N(/N=C/c2cccnc2)C1 [pymetrozine] |  |  |  | Ca2+ mobilization in cells co-expressing Nan and Iav (insect TRPV channel), in words [1]: triggered Ca^2+ mobilization; also recorded: activation of insect TRPV channel; Ca2+ mobilization in cells co-expressing Nan and Iav (insect TRPV channel), in words ([1]; listed as Pymetrozine): triggered Ca^2+ mobilization; Ca2+ mobilization in cells expressing mTRPV4, in words (mouse TRPV4 (mTRPV4); listed as Pymetrozine): had no effect |
| Clc1ccc(C2CC3CCC2N3)cn1 (centres unmarked) [Epibatidine] |  | 63 fluorescence units | 49 fluorescence units | Response of cells (fluorescence units), Insect TRPV cells ([1]; […]): 70 fluorescence units |
